Values joined by “and” are separate entries in the source; they are usually repeats but may differ in a detail not shown here. Identical values can stand only once.
Target: farnesyl protein transferase (Homo sapiens, UniProt P49354+P49356)
Assay: FPT IC50, inhibition of farnesyl protein transferase, in vitro enzyme assay (procedure of WO 95/10516)
Type: biochemical
Details: several values in a cell are repeat determinations, read-out: FPT C50
Experimental: FPT IC50 (inhibition of farnesyl protein transferase, in vitro enzyme assay). and COS Cell IC50 (Cell-Based Assay) were determined following the assay procedures described in WO 95/10516, published April 20, 1995. GGPT IC50 (inhibition of geranylgeranyl protein transferase, in vitro enzyme assay), Cell Mat Assay, and anti-tumor activity (in vivo anti-tumor studies) could be determined by the assay procedures described in WO 95/10516. The disclosure of WO 95/10516 is incorporated herein by reference thereto.

| IC50 | SMILES |
| --- | --- |
| 7.2 nM and 6.7 nM | O=C(NCCc1c[nH]cn1)C1CN(C2c3ccc(Cl)cc3CCc3cc(Br)cnc32)CCN1C(=O)NC1CCCCC1 (stereo not drawn) [Compound 227] |
| > 150 nM | O=C(NCCCN1CCCC1=O)C1CN(C2c3ncc(Br)cc3CCc3cc(Cl)cc(Br)c32)CCN1 (stereo not drawn) [Compound 216, 4-(3,10-DIBROMO-8-CHLORO-6,11-DIHYDRO-5H-BENZO[5,6] CYCLOHEPTA[1,2-b]PYRIDIN-11-YL)-N-[3-(2-OXO-1-PYRROLIDINYL)PROPYL]-2-PIPERAZINECARBOXAMIDE] |

| SMILES | IC50 |
| --- | --- |
| COCC(=O)N1CCN(C2c3ncc(Br)cc3CCc3cc(Cl)cc(Br)c32)CC1C(=O)NCCCN1CCCC1=O (stereo not drawn) [Compound 218] | 48 nM |

From patent publication EP0989983B1 (SCHERING CORPORATION, priority 1997, dated 1998)
